Experimental data reported in article PMC9090141 (Pediatric blood & cancer, 2021).
Several values for one entry are separate records, joined by “and”; a condition that tells them apart may be missing. Equal values may be shown once. Entries after “also recorded” stand apart in the source; their conditions may differ. Where a name gives a salt, the structure may show the parent alone. Read-outs that look alike come from different tables or passages of the source.

Experiments:
[1] = Plasma pharmacokinetics in cycle 1; type: in vivo, human; conditions: for Tmax / half-life / concentration at 24 h / AUC(0-inf) / AUC(0-t) / Cmax: plasma; for concentration at 24 h: RP2D (150 mg/m^2)
pCHK1 = conditions: cited from earlier work
[2] = system: adults with advanced or metastatic solid tumors; conditions: cited from earlier work
[3] = adults, 105 mg/m^2, cited from earlier work
[4] = system: pediatric cancer cell lines; conditions: cited from earlier work
[5] = in vivo; cited from earlier work
[6] = 80 mg/m^2 IV over 60 min, first dose cycle 1, 6 patients
[7] = 100 mg/m^2 IV over 60 min, first dose cycle 1, 6 patients
[8] = 125 mg/m^2 IV over 60 min, first dose cycle 1, 5 patients
[9] = 150 mg/m^2 IV over 60 min, first dose cycle 1, 12 patients
[10] = All Patients (80-150 mg/m^2), first dose cycle 1, 29 patients

In the case of `COc1cccc(OCCCN)c1-c1cc(Nc2cnc(C#N)cn2)n[nH]1` [prexasertib, Prexasertib mesylate monohydrate], the CLp [1, 6] is reported as 48.2 ± 11.5 L/hr/m^2, the Vss [1, 6] is reported as 245 ± 67 L/m^2 and the CLp [1, 7] is reported as 45.1 L/hr/m^2 and 45.1 ± 12.6 L/hr/m^2. The Vss [1, 7] was 332 ± 85 L/m^2, the CLp [1, 8] was 49.3 ± 10.3 L/hr/m^2 and the Vss [1, 8] was 292 ± 169 L/m^2. For the same compound, the CLp [1, 9] was 44.4 L/hr/m^2 and 44.4 ± 13.5 L/hr/m^2, the Vss [1, 9] was 257 ± 98 L/m^2 and the “exposure relative to the adult RP2D” value ([1]; 150 mg/m^2 vs RP2D from either adult study) was “twice the exposure”. The “dose proportionality / linearity of PK” value ([1]; 80–150 mg/m^2 dose range, single dose) was “linear; also recorded: proportional to dose”, the CLp [1, 10] was 46.1 ± 12.0 L/hr/m^2 and the Vss [1, 10] was 276 ± 102 L/m^2. The BSA-adjusted plasma clearance ([1]; children <12 years (N=16)) was 49.4 ± 10.0 L/hr/m^2, the plasma clearance ([1]; females (N=9)) was 47.1 ± 9.7 L/hr/m^2 and the “time plasma concentrations maintained above the IC50 for pCHK1 inhibition” value ([1]; human, in vivo) was “approximately 24 hours”. The Tmax ([1]; human, intravenous) was 1.2 ± 0.5 h, the half-life ([1]; human, intravenous) was 534 ± 204 min and the concentration at 24 h ([1]; human, intravenous, 150 mg/m^2, median plasma concentration 24 hours after the first dose (C-24h)) was 13.4 ng/mL. It also gave a concentration at 24 h ([1]; human, intravenous, 150 mg/m^2, range of plasma concentration 24 hours after the first dose (C-24h)) of 7.6 to 43.6 ng/mL, an AUC(0-inf) ([1]; human, iv, 80 mg/m2) of 1730 ± 387 ng·h/mL and an AUC(0-t) ([1]; human, iv, 80 mg/m2) of 1620 ± 358 ng·h/mL. The Cmax ([1]; human, iv, 80 mg/m2) was 858 ± 311 ng/mL, the Tmax ([1]; human, iv, 80 mg/m2) was 1.4 ± 0.9 h and the half-life ([1]; human, iv, 80 mg/m2) was 456 ± 138 min. The AUC(0-inf) ([1]; human, iv, 100 mg/m2) was 2380 ± 712 ng·h/mL, the AUC(0-t) ([1]; human, iv, 100 mg/m2) was 2010 ± 416 ng·h/mL and the Cmax ([1]; human, iv, 100 mg/m2) was 984 ± 289 ng/mL. The Tmax ([1]; human, iv, 100 mg/m2) was 1.1 ± 0.2 h, the half-life ([1]; human, iv, 100 mg/m2) was 600 ± 234 min and the AUC(0-inf) ([1]; human, iv, 125 mg/m2) was 2640 ± 632 ng·h/mL. The AUC(0-t) ([1]; human, iv, 125 mg/m2) was 2460 ± 545 ng·h/mL, the Cmax ([1]; human, iv, 125 mg/m2) was 1230 ± 212 ng/mL and the Tmax ([1]; human, iv, 125 mg/m2) was 1.1 ± 0.1 h. It also gave a half-life ([1]; human, iv, 125 mg/m2) of 510 ± 270 min, an AUC(0-inf) ([1]; human, iv, 150 mg/m2) of 3680 ± 1060 ng·h/mL and an AUC(0-t) ([1]; human, iv, 150 mg/m2) of 3360 ± 898 ng·h/mL. The Cmax ([1]; human, iv, 150 mg/m2) was 1700 ± 822 ng/mL, the Tmax ([1]; human, iv, 150 mg/m2) was 1.2 ± 0.5 h and the half-life ([1]; human, iv, 150 mg/m2) was 552 ± 210 min. The plasma clearance ([1]; males (N=20)) was 45.6 ± 13.1 L/hr/m^2, the BSA-adjusted plasma clearance ([1]; ≥12 years (N=13)) was 42.2 ± 13.3 L/hr/m^2 and the “median AUC0–72h predicted for efficacy” value (pCHK1; Calu-6 preclinical PK/PD model) was 1896 ng·h/mL. The “IC50 for pCHK1 inhibition (plasma concentration)” value (pCHK1) was 14.1 ng/ml, the “dose-limiting toxicities at the adult RP2D” value ([2]; 105 mg/m^2 IV once every 14 days) was “no dose-limiting toxicities” and the “adult recommended Phase 2 dose (RP2D)” value ([2]; IV once every 14 days) was 105 mg/m^2. For the same compound, the “mean AUC0–24h” value ([3]; ref Hong et al. [11]) was 1130 ng·h/mL, the “mean AUC0–24h” value ([3]; ref Iwasa et al. [20]) was 1690 ng·h/mL and the “inhibition of cell proliferation, potency” value [4] was “low nanomolar concentrations”. The CNS penetration [5] was “adequate CNS penetration”.
